Laboratory results published in patent publication EP2284178A2, “Inhibitors of cancer cell, T-cell and keratinocyte proliferation” (4SC AG, priority 2005, dated 2007).

Molecular target: T1, human Proteasome (Homo sapiens, UniProt P28074)
T1 construct: purchased Immatics, Tübingen
Test: chymotryptic activity of the 20S proteasome (Suc-LLVT-AMC substrate, fluorescence)
Format: biochemical
Conditions: for human Proteasome IC50: result given in words
Experimental: The chymotryptic activity of the 20S proteasome (Immatics, Tübingen) was determined using a Tecan Ultra plate reader and Suc-LLVT-AMC as substrate (Bachem). In the wells of a black 96 well polypropylene plate, 2 µl of the respective inhibitor dissolved in DMSO were mixed with 50 µl substrate solution (25 mM HEPES pH 7.5 at 20°C, 0.5 mM EDTA and Suc-LLVT-AMC (in the appropriate concentration) and the reaction was initiated by adding 150 µl proteasome solution (1.3 µg/ml 20S proteasome in 25 mM HEPES pH 7.5 at 20°C, 0.5 mM EDTA, 0.033% (w/v) SDS). Substrate hydrolysis was followed by fluorescence spectroscopy (excitation wavelength: 360 nm; emission wavelength: 465 nm) for 20 min at 30°C and initial velocities were calculated and expressed as change in relative fluorescence units (RFU) per second.

human Proteasome IC50	IC50 (unit printed as µm) [µM]	SMILES
nanomolar	–	CC(C)(C)OC(=O)NC(Cc1ccc(Br)cc1)C(=O)NC(Cc1ccc2ccccc2c1)C(=O)NC(C=NN1CC(=O)NC1=O)Cc1ccccc1 (stereo not drawn) [Compound 7]
nanomolar	–	O=C1CN(N=CC(Cc2ccccc2)NC(=O)C(Cc2ccc3ccccc3c2)NC(=O)C(Cc2ccc(F)cc2)NC(=O)OCc2ccccc2)C(=O)N1 (stereo not drawn) [Compound 9]
–	3.5	O=C1CN(/N=C/C(Cc2ccccc2)NC(=O)c2csc(-c3ccc4c(c3)CCO4)n2)C(=O)N1 (stereo not drawn) [Compound 10]
